Measured values reported in ChEMBL document CHEMBL1154267, “Imidazo[1,5-a][1,2,4]-triazolo[1,5-d][1,4]benzodiazepines as potent and highly selective GABAA alpha5 inverse agonists with potential for the treatment of cognitive dysfunction” (Bioorg Med Chem Lett, 2009).
≈ marks a conversion by molar mass, not a printed value. Calls of active or inactive are those of the source. The calls are words filed in the database; no cut-off is given here.

Legend:
[1] = target: T1, GABA-A receptor; alpha-3/beta-3/gamma-2 (Homo sapiens, UniProt P18507+P28472+P34903); experiment: Displacement of [3H]flumazenil from GABAA alpha-3-beta-3-gamma-2 receptor; assay type: protein-complex assay
T1 sequence (P18507 whole entry): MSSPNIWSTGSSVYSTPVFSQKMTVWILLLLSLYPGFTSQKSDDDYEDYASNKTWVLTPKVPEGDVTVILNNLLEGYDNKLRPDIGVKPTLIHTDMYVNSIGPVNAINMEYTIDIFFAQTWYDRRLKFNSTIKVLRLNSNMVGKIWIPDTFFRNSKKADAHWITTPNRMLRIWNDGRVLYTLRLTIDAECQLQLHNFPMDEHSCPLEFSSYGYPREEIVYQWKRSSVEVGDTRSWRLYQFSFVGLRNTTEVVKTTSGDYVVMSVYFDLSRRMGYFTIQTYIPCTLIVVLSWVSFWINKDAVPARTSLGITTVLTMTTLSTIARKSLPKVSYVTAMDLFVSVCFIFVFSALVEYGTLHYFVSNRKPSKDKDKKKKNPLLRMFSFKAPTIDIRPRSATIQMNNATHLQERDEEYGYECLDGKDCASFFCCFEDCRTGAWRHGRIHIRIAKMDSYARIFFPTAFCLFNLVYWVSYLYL
T1 sequence (P28472 whole entry): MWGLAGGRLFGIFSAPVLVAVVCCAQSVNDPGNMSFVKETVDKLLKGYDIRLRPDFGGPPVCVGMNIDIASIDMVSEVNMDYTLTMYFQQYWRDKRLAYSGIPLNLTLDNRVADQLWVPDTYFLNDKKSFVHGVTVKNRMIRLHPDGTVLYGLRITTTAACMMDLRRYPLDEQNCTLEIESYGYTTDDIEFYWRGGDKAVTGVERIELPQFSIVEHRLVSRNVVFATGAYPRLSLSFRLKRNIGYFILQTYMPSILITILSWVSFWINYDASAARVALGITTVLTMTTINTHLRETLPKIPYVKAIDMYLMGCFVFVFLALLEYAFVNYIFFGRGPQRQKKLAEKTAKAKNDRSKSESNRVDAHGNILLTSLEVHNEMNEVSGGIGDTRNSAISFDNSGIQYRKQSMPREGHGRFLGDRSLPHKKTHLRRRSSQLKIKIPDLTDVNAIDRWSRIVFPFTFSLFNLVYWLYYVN
T1 sequence (P34903 whole entry): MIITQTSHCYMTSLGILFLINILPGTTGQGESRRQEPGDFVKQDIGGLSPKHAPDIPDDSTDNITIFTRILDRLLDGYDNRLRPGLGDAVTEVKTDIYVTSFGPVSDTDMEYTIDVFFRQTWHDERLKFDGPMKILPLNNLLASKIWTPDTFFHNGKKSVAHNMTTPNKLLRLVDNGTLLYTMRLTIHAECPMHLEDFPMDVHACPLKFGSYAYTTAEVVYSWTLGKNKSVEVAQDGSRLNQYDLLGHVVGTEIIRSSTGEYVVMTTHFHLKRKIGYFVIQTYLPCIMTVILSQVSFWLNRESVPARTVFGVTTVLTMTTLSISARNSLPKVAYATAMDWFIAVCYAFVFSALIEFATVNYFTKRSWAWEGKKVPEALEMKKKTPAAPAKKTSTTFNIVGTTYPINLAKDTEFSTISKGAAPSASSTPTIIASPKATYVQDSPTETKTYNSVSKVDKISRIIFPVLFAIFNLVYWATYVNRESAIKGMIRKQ

[2] = target: T2, GABA-A receptor; alpha-1/beta-3/gamma-2 (Homo sapiens, UniProt P14867+P18507+P28472); experiment: Displacement of [3H]flumazenil from GABAA alpha-1-beta-3-gamma-2 receptor; assay type: protein-complex assay
T2 sequence (P14867 whole entry): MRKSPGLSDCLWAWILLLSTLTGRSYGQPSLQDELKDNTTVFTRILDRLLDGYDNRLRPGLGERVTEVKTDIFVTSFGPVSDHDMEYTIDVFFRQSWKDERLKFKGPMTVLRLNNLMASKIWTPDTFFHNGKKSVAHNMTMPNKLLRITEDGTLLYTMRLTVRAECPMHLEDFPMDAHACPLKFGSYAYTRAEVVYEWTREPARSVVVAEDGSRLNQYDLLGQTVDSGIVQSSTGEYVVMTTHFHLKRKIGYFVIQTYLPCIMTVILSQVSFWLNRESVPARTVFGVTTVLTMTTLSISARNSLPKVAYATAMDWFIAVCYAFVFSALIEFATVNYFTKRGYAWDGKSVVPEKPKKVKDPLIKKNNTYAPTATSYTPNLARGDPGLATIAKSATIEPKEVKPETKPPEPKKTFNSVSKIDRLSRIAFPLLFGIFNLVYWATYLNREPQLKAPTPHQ
T2 sequence (P18507 whole entry): T1 sequence (P18507 whole entry)
T2 sequence (P28472 whole entry): T1 sequence (P28472 whole entry)

[3] = target: T3, GABA-A receptor; alpha-5/beta-3/gamma-2 (Homo sapiens, UniProt P18507+P28472+P31644); experiment: Displacement of [3H]flumazenil from GABAA alpha-5-beta-3-gamma-2 receptor; assay type: protein-complex assay
T3 sequence (P18507 whole entry): T1 sequence (P18507 whole entry)
T3 sequence (P28472 whole entry): T1 sequence (P28472 whole entry)
T3 sequence (P31644 whole entry): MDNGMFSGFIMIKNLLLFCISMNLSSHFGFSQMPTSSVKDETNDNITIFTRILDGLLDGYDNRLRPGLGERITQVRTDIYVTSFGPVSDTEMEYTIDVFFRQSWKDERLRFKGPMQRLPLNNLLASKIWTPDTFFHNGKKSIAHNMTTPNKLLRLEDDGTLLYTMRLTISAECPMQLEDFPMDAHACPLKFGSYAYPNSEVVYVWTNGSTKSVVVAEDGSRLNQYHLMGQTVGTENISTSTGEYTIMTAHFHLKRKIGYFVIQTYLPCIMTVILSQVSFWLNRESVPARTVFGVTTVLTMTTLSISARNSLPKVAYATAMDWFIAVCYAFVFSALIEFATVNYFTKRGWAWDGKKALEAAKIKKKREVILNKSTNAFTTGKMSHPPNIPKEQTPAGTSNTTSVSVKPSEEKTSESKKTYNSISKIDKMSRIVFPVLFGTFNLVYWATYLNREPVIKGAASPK

[4] = target: GABA-A receptor; alpha-5/beta-3/gamma-2 (Homo sapiens) (UniProt P18507+P28472+P31644); experiment: Inverse agonist activity at GABAA alpha-5-beta-3-gamma-2 receptor assessed as modulation of GABA-induced chloride ion flux by electrophysiology assay relative to GABA; assay type: functional
[5] = target: T4, GABA-A receptor; alpha-2/beta-3/gamma-2 (Homo sapiens, UniProt P18507+P28472+P47869); experiment: Displacement of [3H]flumazenil from GABAA alpha-2-beta-3-gamma-2 receptor; assay type: protein-complex assay
T4 sequence (P18507 whole entry): T1 sequence (P18507 whole entry)
T4 sequence (P28472 whole entry): T1 sequence (P28472 whole entry)
T4 sequence (P47869 whole entry): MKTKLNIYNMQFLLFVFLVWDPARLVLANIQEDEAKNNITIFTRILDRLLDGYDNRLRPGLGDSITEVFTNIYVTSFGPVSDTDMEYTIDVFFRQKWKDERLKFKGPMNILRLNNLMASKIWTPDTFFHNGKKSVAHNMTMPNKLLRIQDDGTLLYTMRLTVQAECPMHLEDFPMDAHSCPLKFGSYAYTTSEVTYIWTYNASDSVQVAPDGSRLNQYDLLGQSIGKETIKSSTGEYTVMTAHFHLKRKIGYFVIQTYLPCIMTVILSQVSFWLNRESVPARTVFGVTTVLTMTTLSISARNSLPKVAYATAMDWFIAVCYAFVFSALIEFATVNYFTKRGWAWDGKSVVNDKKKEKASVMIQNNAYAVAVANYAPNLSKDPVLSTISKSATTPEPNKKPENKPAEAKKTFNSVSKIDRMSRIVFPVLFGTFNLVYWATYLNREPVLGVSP

[6] = Selectivity ratio of Ki for GABAA alpha-3-beta-3-gamma-2 receptor to Ki for GABAA alpha-5-beta-3-gamma-2 receptor
[7] = Selectivity ratio of Ki for GABAA alpha-2-beta-3-gamma-2 receptor to Ki for GABAA alpha-5-beta-3-gamma-2 receptor
[8] = Selectivity ratio of Ki for GABAA alpha-1-beta-3-gamma-2 receptor to Ki for GABAA alpha-5-beta-3-gamma-2 receptor
[9] = target: GABA-A receptor; alpha-1/beta-3/gamma-2 (Homo sapiens) (UniProt P14867+P18507+P28472); experiment: Inverse agonist activity at GABAA alpha-1-beta-3-gamma-2 receptor assessed as modulation of GABA-induced chloride ion flux by electrophysiology assay relative to GABA; assay type: functional
[10] = Permeability by PAMPA; assay type: ADME; details: read-out: permeability
[11] = Lipophilicity, log D at pH 7.4; assay type: physicochemical; details: buffer
[12] = Half life in rat; assay type: ADME, organism-based; details: in vivo
[13] = Solubility of the compound; assay type: physicochemical
[14] = Ratio of drug level in brain to plasma in rat; assay type: ADME, organism-based; details: brain and plasma
[15] = Volume of distribution at steady state in rat; assay type: ADME, organism-based; details: in vivo, read-out: Vdss
[16] = Oral bioavailability in rat; assay type: ADME, organism-based; details: in vivo
[17] = Clearance in rat; assay type: ADME, organism-based; details: in vivo
Rattus norvegicus = experiment: Behavioral effect in Lister hooded rat assessed as reversal of Scopolamine-induced impairment of working memory at 1 mg/kg, ip administered 30 mins before Scopolamine challenge by delayed match to position test; assay type: functional, organism-based; parameters: dose 1 mg/kg
[18] = target: GABA-A receptor; alpha-2/beta-3/gamma-2 (Homo sapiens) (UniProt P18507+P28472+P47869); experiment: Inverse agonist activity at GABAA alpha-2-beta-3-gamma-2 receptor assessed as modulation of GABA-induced chloride ion flux by electrophysiology assay relative to GABA; assay type: functional
[19] = target: GABA-A receptor; alpha-3/beta-3/gamma-2 (Homo sapiens) (UniProt P18507+P28472+P34903); experiment: Inverse agonist activity at GABAA alpha-3-beta-3-gamma-2 receptor assessed as modulation of GABA-induced chloride ion flux by electrophysiology assay relative to GABA; assay type: functional

| SMILES | Ki [1] [µM] | Ki [2] [µM] | Ki [3] [µM] | Efficacy [4] [%] | Ki [5] [µM] | Ratio Ki [6] | Ratio Ki [7] | Ratio Ki [8] | further results |
| --- | --- | --- | --- | --- | --- | --- | --- | --- | --- |
| Cc1nc2n(n1)Cc1c(C)ncn1-c1ccc(Br)cc1-2 | 1.62 | 1.42 | 0.02 | -17 | 3.16 |  |  |  |  |
| Cc1ncn2c1Cn1nc(CC3CC3)nc1-c1cc(Br)ccc1-2 | 0.407 | 0.538 | 0.005 | -12 | 0.407 | 2 | 2 | 2 |  |
| Cc1ncn2c1Cn1ncnc1-c1cc(Br)ccc1-2 | 0.132 | 0.136 | 0.006 | -42 | 0.186 |  |  |  | Efficacy [9]: -16% |
| Cc1ncn2c1Cn1nc(C(C)(C)C)nc1-c1cc(Br)ccc1-2 | 1.21 | 3.16 | 0.146 |  | 1.07 |  |  |  |  |
| COCc1nc2n(n1)Cc1c(C)ncn1-c1ccc(Br)cc1-2 | 0.592 | 0.619 | 0.013 | -3 | 0.693 |  |  |  |  |
| Cc1cc(Cc2nc3n(n2)Cc2c(C)ncn2-c2ccc(O)cc2-3)on1 |  |  | 0.0012 | -7 |  |  |  | 99 |  |
| Cc1cc(Cc2nc3n(n2)Cc2c(C)ncn2-c2ccc(Br)cc2-3)on1 | 0.073 | 0.188 | 0.0006 | -27 | 0.105 | 122 | 174 | 314 | Papp [10]: 33 nm/s; logD [11]: 2.6; half-life [12]: 1.4 h; solubility [13]: 7 µg/mL (≈ 17 µM); Kp [14]: 0.2; Vd [15]: 4.6 L/kg; bioavailability [16]: 34%; clearance [17]: 2.34 L/h/kg |
| Cc1cc(-c2nnc3c4ccccc4c(OCc4ccccn4)nn23)no1 | 0.0015 | 0.0015 | 0.0015 | -41 |  |  |  |  | Activity (Rattus norvegicus): Active; Efficacy [18]: 11%; Efficacy [9]: -9%; Efficacy [19]: 10% |
| Cc1ccc2c(c1)-c1nc(Cc3cc(C)no3)nn1Cc1c(C)ncn1-2 |  |  | 0.0008 | -16 |  | 360 | 332 | 620 |  |
| Cc1cc(Cc2nc3n(n2)Cc2c(C)ncn2-c2ccccc2-3)on1 |  |  | 0.0016 |  |  | 16 | 20 | 57 |  |
| COc1ccc2c(c1)-c1nc(Cc3cc(C)no3)nn1Cc1c(C)ncn1-2 |  |  | 0.0022 | -13 |  | 222 | 193 | 307 |  |
| Cc1noc(Cc2nc3n(n2)Cc2c(C)ncn2-c2ccc(Br)cc2-3)n1 | 0.277 | 0.469 | 0.0009 | -18 | 0.317 |  |  |  |  |
| Cc1cc(Cc2nc3n(n2)Cc2c(C)ncn2-c2ccc(OC(F)(F)F)cc2-3)on1 |  |  | 0.011 | -20 |  | 111 | 83 | 68 |  |
